In paper PMC8164609 (Environmental Science and Pollution Research International, 2021):
Several values for one entry are separate records, joined by “and”; a condition that tells them apart may be missing. Equal entries are not always repeated. Where two headings read alike, the source gives them in different places.

How the values were obtained:
human ERα = target: T1, human ERα (Homo sapiens, UniProt P03372); assay: Yeast bioluminescent assay, S. cerevisiae BMAEREluc/ERα (ERE-luc reporter); format: cell-based; settings: S. cerevisiae BMAEREluc/ERα, about 2.5 h incubation, 5% EtOH vehicle; read-out: EC50 (estrogenic potency, luminescence)
T1 construct: expressed in transfected cells; host or cells: Saccharomyces cerevisiae BMAEREluc/ERα (recombinant yeast, gift of Dr. Johanna Rajasärkkä, University of Helsinki)
T1 sequence (P03372 1-595): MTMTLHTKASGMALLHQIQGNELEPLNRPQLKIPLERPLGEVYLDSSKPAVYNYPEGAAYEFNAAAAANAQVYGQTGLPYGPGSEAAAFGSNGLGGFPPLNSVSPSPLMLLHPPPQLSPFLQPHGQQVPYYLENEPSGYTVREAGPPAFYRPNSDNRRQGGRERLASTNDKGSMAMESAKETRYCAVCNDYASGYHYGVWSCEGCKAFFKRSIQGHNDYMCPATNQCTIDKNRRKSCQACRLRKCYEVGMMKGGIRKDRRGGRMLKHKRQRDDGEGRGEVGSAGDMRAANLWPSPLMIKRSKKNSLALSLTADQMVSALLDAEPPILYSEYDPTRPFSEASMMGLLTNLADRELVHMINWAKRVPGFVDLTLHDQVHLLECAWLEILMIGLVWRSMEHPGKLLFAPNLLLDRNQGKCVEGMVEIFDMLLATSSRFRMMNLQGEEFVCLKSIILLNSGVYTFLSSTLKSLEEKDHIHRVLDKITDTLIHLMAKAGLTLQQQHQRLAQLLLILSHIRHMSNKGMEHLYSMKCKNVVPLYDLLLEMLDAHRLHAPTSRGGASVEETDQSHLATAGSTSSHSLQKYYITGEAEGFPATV
Protocol: Yeast bioluminescent assay was performed as previously described (Omoruyi and Pohjanvirta [2018]). Two recombinant yeasts, Saccharomyces cerevisiae BMAEREluc/ERα and Saccharomyces cerevisiae BMA64/luc, were kindly provided by Dr. Johanna Rajasärkkä, Department of Food and Environmental Sciences, Faculty of Agriculture and Forestry, University of Helsinki. In the BMAEREluc/ERα, human ERα is expressed. After estrogen-like chemicals bind to ERα, the dimerized receptor binds to a specific DNA sequence called estrogen response element (ERE), in the promotor region of the luc reporter gene, inducing its expression. In BMA64/luc, the luciferase is expressed constitutively, and this strain can be used for the evaluation of cytotoxicity of test compounds. […]
Next, 90 μL of cultured yeasts containing 1:20 luciferin solution (0.042 g luciferin dissolved in 9.75 mL of 0.2 M trisodium citrate, and 5.525 mL of 0.2 M citrate, pH 5) was pipetted into every well of a white 96-well flat-bottom plate, and 10 μL of test compounds in a defined concentration range (diluted in 5% EtOH) were added. […] The luminescence measurement was performed with Luminoskan Ascent microplate luminometer (Thermo Labsystems) using the recommended settings as follows: 1000 ms integration time, single measurement mode, shaking at 60 rpm for 5 s prior to measurement. […]

human lymphocytes = settings: MTT, cited from earlier work
estrogen receptor = target: estrogen receptor; parameters: method as in Axon et al. [2012]; settings: reporter gene construct in human ERα-positive MCF-7 cells; ref Axon et al. [2012]; read-out: EC50 concentration for estrogen receptor activation; cited from earlier work
MCF-7 cells [1] = assay: MCF-7 cell proliferation assay (MTT reduction); format: cell-based, human; settings: MCF-7 cells, MTT
Protocol: MCF-7 cell line which is sensitive to estrogen (ERα^+) was kindly provided by Dr. Sari Tojkander (Department of Veterinary Biosciences, Faculty of Veterinary Medicine, University of Helsinki). Cells were usually grown in T25 or T75 flasks containing DMEM with or without phenol red and supplemented with 7–10% FBS and 4 mM L-glutamine at 37°C in 5% CO2/95% humidified atmosphere. In order to eliminate the disturbing effect of hormones usually present in FBS, cell culture medium supplemented with commercially available charcoal-stripped FBS and 4 mM L-glutamine (SF medium) was used for experiments.
The effect of EEDCs on the proliferation of MCF-7 cells was assessed as previously described by measuring the capacity of the cells in each well to reduce MTT reagent (Van Meeuwen et al. [2007]). Approximately 5000 cells/200 μL of SF medium containing DMEM without phenol red, 5% charcoal-stripped FBS, and 4 mM L-glutamine were seeded per well in a 96-well cell culture plate. On day 2, cells were treated with the SF medium containing test compounds or vehicle. The final concentration of the solvents DMSO and EtOH was lower than 0.1%. On day 5, the SF medium containing test compounds or vehicle were refreshed. On day 8, cells were washed with PBS twice and then incubated with the SF medium containing 1 mg/mL MTT reagent for 1 h. The ability of MCF-7 cells to reduce MTT was measured at the reference wavelength of 595 nm using a microplate reader (Multiskan Ascent, Thermo Fisher Scientific). All the exposures were in triplicate.
The dose-response curves of test samples were plotted against logarithmic-transformed concentrations.

MCF-7 cells [2] = assay: In vitro micronucleus assay for cytokinesis block; format: cell-based, human; settings: 24 h; for Micronuclei per 1000 binucleated cells, Replicates: single replicate values
Protocol: The genotoxicity of EEDCs to MCF-7 cells was assessed by the in vitro micronucleus assay for cytokinesis block. MCF-7 cells were seeded at a density of 5×10^4/well in a 12-well plate in SF medium containing DMEM, 7% charcoal-stripped FBS and 4 mM L-glutamine. These cells were treated with test compounds or the positive control for 24 h. Then, cells were washed twice with PBS, treated with 2 μg/mL cytochalasin B, and incubated for 1.5–2 normal cell cycle lengths (~24 h for MCF-7 cells). Finally, cells were washed with PBS and fixed with 4% paraformaldehyde for 10–15 min (in PBS, pH 6.9). Before staining cells with 5% Giemsa stain for 20 min, plates were washed again with PBS and dried. The frequency of micronuclei per 1000 binucleated cells was counted for each well, and the ratio of micronucleus frequency in treated vs. control cells was defined as fold induction. Cells in mitosis were omitted.

O=C([O-])C1=NN(c2ccc(S(=O)(=O)[O-])cc2)C(=O)C1N=Nc1ccc(S(=O)(=O)[O-])cc1.[Na+].[Na+].[Na+] (stereo not drawn) [tartrazine]
EC50 (human ERα): 0.1 nM | cytotoxicity to human lymphocytes (human lymphocytes; 0.25–64 mM, ref Soares et al. [2015]): not cytotoxic | cytotoxicity to human lymphocytes (human lymphocytes; 4 and 8 mM, ref Mpountoukas et al. [2010]): cytotoxic | EC50 (estrogen receptor): 160 nM | efficacy (maximum induction of cell growth) compared with 17β-estradiol (MCF-7 cells [1]): about one third | EC50 (MCF-7 cells [1]; hormone-depleted medium, read-out: EC50 (proliferative effect)): 7.46 nM | Fold (micronucleus frequency treated vs. control) (MCF-7 cells [2]; 10^−7 M): 2.81 | Micronuclei per 1000 binucleated cells, Average (MCF-7 cells [2]; 10^−7 M): 29 per 1000 binucleated cells | Micronuclei per 1000 binucleated cells, Replicates (MCF-7 cells [2]; 10^−7 M): 29 per 1000 binucleated cells and 31 per 1000 binucleated cells and 27 per 1000 binucleated cells | Fold (micronucleus frequency treated vs. control) (MCF-7 cells [2]; 10^−8 M): 2.10 | Micronuclei per 1000 binucleated cells, Average (MCF-7 cells [2]; 10^−8 M): 21.67 per 1000 binucleated cells | Micronuclei per 1000 binucleated cells, Replicates (MCF-7 cells [2]; 10^−8 M): 21 per 1000 binucleated cells and 19 per 1000 binucleated cells and 25 per 1000 binucleated cells
